Data on 18 compounds can be found in US4708961A, “Acylindole derivatives and their use in pharmaceutical compositions” (priority 1983, dated 1987).

Data set [1] has as its system collagen induced platelet-aggregation (Platelet Rich Plasma). In words: Inhibition of platelet-aggregation (collagen induced, aggregometer, rat PRP). The class given is cell-based, Wistar-strain male rats. Particulars: for IC50: same manner (collagen), male rats weighing 500-700 g; for Platelet Aggregation (%): control 58 ± 1. As for the experimental part:
(2) Inhibition of platelet-aggregation
Groups of 5 Wistar-strain male rats (weighing 250-300 g) were used for collection of blood from abdominal aorta in the presence of sodium citric acid under anesthesia with ether. The obtained material was centrifuged at 200×g for 8 minutes to give Platelet Rich Plasma (PRP) from the supernatant. Further centrifugation was carried out at 1500×g for 15 minutes to obtain Platelet Poor Plasma (PPP) from the supernatant.
Platelet-aggregation was measured by aggregometer. 5 μl of the solution of the examined compound was added to 450 μl of the above-mentioned PRP and incubated for 1 minute at 37° C., after that a coagulant was added thereto. Collagen was used as the coagulant (final concentration was 4 μg/ml). Test compound was dissolved in DMSO (dimethylsulfoxide).
In the same manner as indicated above using Wister strain male rats weighing 500-700 g, example of the results is shown in Table 2.

The test system of a further data set is ddy-strain male mice. Put plainly: Acute toxicity test. In kind it is in vivo. Particulars: 4000 mg/kg, orally administered, groups of 5 ddy-strain male mice fasted for 18 hours. Here is the method: 4000 mg/kg of the compound of the invention were orally administered to groups of 5 ddy-strain male mice which were fasted for 18 hours.
[2] abbreviates: 300 μM, collagen 4 μg/ml, PRP of Wistar-strain male rats 250-300 g, 1 minute at 37° C.
The mark [3] stands for this setting: Rattus norvegicus, Platelet, 1 min, 300 μM, collagen 4 μg/ml, PRP of Wistar-strain male rats 250-300 g, 1 minute at 37° C., read-out: Inhibition rate (%).

As a reminder, the IC50 is the midpoint of a concentration-inhibition curve. High values mean lower potency, low ones higher potency. In the case of `O=C(c1ccc(OCCCO)cc1)c1cn(CCCO)c2ccccc12` [compound 24, 3-[p-(3-hydroxypropoxy)benzoyl]-N-(3-hydroxypropyl)indole], the IC50 in data set [1] (Rattus norvegicus, Platelet) worked out at 77 µM. This counts as double-digit micromolar.
`COc1ccc2c(c1)c(CC(=O)O)c(C)n2C(=O)c1ccc(Cl)cc1` [Indomethacin, reference compound] showed a 50% inhibitory concentration (IC50) in data set [1] (Rattus norvegicus, Platelet) of 27 µM. Against the preceding compound, the IC50 is about 2.9-fold lower.
With `COc1ccccc1C(=O)c1c[nH]c2ccccc12` [compound 2, 3-(o-methoxybenzoyl)indole], in data set [1] (setting [2]), the “Platelet Aggregation (%)” value was 7 ± 4%. This compound yielded an IC50 in data set [1] (Rattus norvegicus, Platelet) of 29 µM. Besides, the “mortality (none of the mice were died)” value in the data set with ddy-strain male mice is listed as “none of the mice were died”.
Broadly, the inhibition is how much of the control response was suppressed. For the compound `CC(=O)Oc1ccc(C(=O)c2cn(C(C)=O)c3ccccc23)cc1` [compound 7, 3-(p-acetoxybenzoyl)-N-acetylindole], in data set [1] (setting [2]), the “Platelet Aggregation (%)” value is 7 ± 1%. In data set [1] (setting [3]), the inhibition at 300 µM amounted to 88%. This compound also came in with an IC50 in data set [1] (Rattus norvegicus, Platelet) of 21 µM. In addition, in the data set on ddy-strain male mice, the “mortality (none of the mice were died)” value is listed as “none of the mice were died”.
For `COc1ccc(C(=O)c2c[nH]c3ccccc23)cc1` [compound 1, 3-(p-methoxybenzoyl)indole], the “Platelet Aggregation (%)” value in data set [1] (setting [2]) is listed as 22 ± 5%. For the same compound, the inhibition at 300 µM in data set [1] (setting [3]) stood at 62%. In data set [1] (Rattus norvegicus, Platelet), this compound displayed an IC50 of 30 µM. The “mortality (none of the mice were died)” value with ddy-strain male mice is on record as “none of the mice were died”.
Compound `O=C(c1ccc(OCCCO)cc1)c1c[nH]c2ccccc12` [compound 23, 3-[p-(3-hydroxypropoxy)benzoyl]indole] displayed an IC50 in data set [1] (Rattus norvegicus, Platelet) of 52 µM.
For `O=C(c1ccc(O)cc1)c1c[nH]c2ccccc12` [compound 3, 3-(p-hydroxybenzoyl)indole], the “Platelet Aggregation (%)” value in data set [1] (setting [2]) is listed as 7 ± 3%. Further, in data set [1] (Rattus norvegicus, Platelet), the IC50 came to 27 µM. Further, in the data set on ddy-strain male mice, the “mortality (none of the mice were died)” value is recorded as “none of the mice were died”.
As to `COc1ccc(C(=O)c2cn(C(C)=O)c3ccccc23)cc1` [compound 5, 3-(p-methoxybenzoyl)-N-acetylindole], the “Platelet Aggregation (%)” value in data set [1] (200 μM, collagen 4 μg/ml, PRP of Wistar-strain male rats 250-300 g, 1 minute at 37° C.) came out at 33 ± 1%. Further, in data set [1] (Rattus norvegicus, Platelet, 1 min, 200 μM, collagen 4 μg/ml, PRP of Wistar-strain male rats 250-300 g, 1 minute at 37° C., read-out: Inhibition rate (%)), the inhibition at 200 µM worked out at 43%. Moreover, the IC50 in data set [1] (Rattus norvegicus, Platelet) worked out at 29 µM. In the data set with ddy-strain male mice, the “mortality (none of the mice were died)” value is reported as “none of the mice were died”.
`COc1ccc(C(=O)c2cn(C)c3ccccc23)cc1` [compound 8, 3-(p-methoxybenzoyl)-N-methylindole]: 23 µM corresponded to half-maximal inhibition in data set [1] (Rattus norvegicus, Platelet) (IC50). Further, the “mortality (none of the mice were died)” value with ddy-strain male mice was “none of the mice were died”.
For `O=C(c1ccc(O)cc1)c1cn(CC(O)CO)c2ccccc12` (stereo not drawn) [compound 17, 3-(p-hydroxybenzoyl)-N-(2,3-dihydroxypropyl)indole], in data set [1] (Rattus norvegicus, Platelet), inhibition was half-maximal at 85 µM (IC50). That is a double-digit micromolar value.
Same read-out and setting: then `O=C(c1ccc(OCC(O)CO)cc1)c1c[nH]c2ccccc12` (stereo not drawn) [compound 16, 3-[p-(2,3-dihydroxypropoxy)benzoyl]indole], with 61 µM.
For `CC(=O)Oc1ccccc1C(=O)O` [Aspirin, reference compound], the “Platelet Aggregation (%)” value in data set [1] (setting [2]) worked out at 23 ± 4%. Besides, in data set [1] (setting [3]), the inhibition at 300 µM amounted to 60%.
With `O=C(c1ccccc1OCC(O)CO)c1cn(CC(O)CO)c2ccccc12` (stereo not drawn) [compound 20], the IC50 in data set [1] (Rattus norvegicus, Platelet) came out at 108 µM.
In data set [1] (Rattus norvegicus, Platelet), `O=C(c1ccccc1O)c1cn(CC(O)CO)c2ccccc12` (stereo not drawn) [compound 19, 3-(o-hydroxybenzoyl)-N-(2,3-dihydroxypropyl)indole] showed an IC50 of 81 µM.
In data set [1] (Rattus norvegicus, Platelet), `O=C(c1ccc(OCC(O)CO)cc1)c1cn(CC(O)CO)c2ccccc12` (stereo not drawn) [compound 18, 3-[p-(2,3-dihydroxypropoxy)benzoyl]-N-(2,3-dihydroxypropyl)indole] yielded an IC50 of 94 µM. This IC50 and that of the compound before are within 1.5-fold of each other.
As for `CC(C)Oc1ccc(C(=O)c2c[nH]c3ccccc23)cc1` [compound 9, 3-(p-isopropoxybenzoyl)indole], the “Platelet Aggregation (%)” value in data set [1] (setting [2]) is recorded as 8 ± 3%. Also, in the data set with ddy-strain male mice, the “mortality (none of the mice were died)” value is recorded as “none of the mice were died”.
Consider `O=C(c1ccccc1O)c1c[nH]c2ccccc12` [compound 4, 3-(o-hydroxybenzoyl)indole], for which the “Platelet Aggregation (%)” value in data set [1] (setting [2]) came to 8 ± 5%. For the same compound, the IC50 in data set [1] (Rattus norvegicus, Platelet) came out at 23 µM. In addition, the “mortality (none of the mice were died)” value in the data set with ddy-strain male mice is on record as “none of the mice were died”.
For `COc1ccccc1C(=O)c1cn(C(C)=O)c2ccccc12` [compound 6, 3-(o-methoxybenzoyl)-N-acetylindole], in data set [1] (setting [2]), the “Platelet Aggregation (%)” value was found to be 9 ± 3%. In addition, the inhibition at 300 µM in data set [1] (setting [3]) turned out to be 84%. The IC50 in data set [1] (Rattus norvegicus, Platelet) worked out at 18 µM. In addition, the “mortality (none of the mice were died)” value with ddy-strain male mice is recorded as “none of the mice were died”.
